In patent publication US11591336B2 (Relay Therapeutics, Inc., priority 2017, dated 2023):
Structures can show the parent of a compound that is named as a salt.

Target: SHP2 (Homo sapiens (Human), UniProt Q06124)
Assay: SHP2 Allosteric Inhibition Assay (DiFMUP prompt fluorescence)
Assay type: biochemical
Conditions: 0.25 nM SHP2 activated with 0.5 μM peptide IRS1_pY1172(dPEG8)pY1222; substrate DiFMUP 100 μM; 25° C.

| Structure (SMILES) | IC50 [nM] |
| --- | --- |
| C[C@@H]1OCC2(CCN(c3cnc4c(N5CCN(C)c6nc(-c7cnn(C)c7)ccc65)n[nH]c4n3)CC2)[C@@H]1N [Compound 310, (3S,4S)-3-methyl-8-(3-(4-methyl-6-(1-methyl-1H-pyrazol-4-yl)-3,4-dihydropyrido[2,3-b]pyrazin-1(2H)-yl)-1H-pyrazolo[3,4-b]pyrazin-6-yl)-2-oxa-8-azaspiro[4.5]decan-4-amine] | < 1000 |
| CCCn1cc(-c2ccc3c(n2)CCCN3c2n[nH]c3nc(N4CCC5(CC4)CO[C@@H](C)[C@H]5N)cnc23)cn1 [Compound 311, (3S,4S)-3-methyl-8-{3-[6-(1-propyl-1H-pyrazol-4-yl)-1,2,3,4-tetrahydro-1,5-naphthyridin-1-yl]-1H-pyrazolo[3,4-b]pyrazin-6-yl}-2-oxa-8-azaspiro[4.5]decan-4-amine] | < 1000 |
| CC(C)n1cc(-c2ccc3c(n2)CCCN3c2n[nH]c3nc(N4CCC5(CC4)CO[C@@H](C)[C@H]5N)cnc23)cn1 [Compound 312, (3S,4S)-8-(3-(6-(1-isopropyl-1H-pyrazol-4-yl)-3,4-dihydro-1,5-naphthyridin-1(2H)-yl)-1H-pyrazolo[3,4-b]pyrazin-6-yl)-3-methyl-2-oxa-8-azaspiro[4.5]decan-4-amine] | < 1000 |
| CNC(=O)N1CCN(c2n[nH]c3nc(N4CCC5(CC4)CO[C@@H](C)[C@H]5N)cnc23)c2ncccc21 [Compound 313, 4-{6-[(3S,4S)-4-amino-3-methyl-2-oxa-8-azaspiro[4.5]decan-8-yl]-1H-pyrazolo[3,4-b]pyrazin-3-yl}-N-methyl-1H,2H,3H,4H-pyrido[2,3-b]pyrazine-1-carboxamide] | 1000 to 10000 |
| C[C@@H]1OCC2(CCN(c3cnc4c(N5CCCc6nc(Oc7cnn(C)c7)ccc65)n[nH]c4n3)CC2)[C@@H]1N [Compound 314] | < 1000 |
| COc1ccc2c(n1)CCCN2c1n[nH]c2nc(N3CCC4(CC3)CO[C@@H](C)[C@H]4N)cnc12 [Compound 315] | < 1000 |
| C[C@@H]1OCC2(CCN(c3cnc4c(N5CCNc6cc(-c7cnn(C)c7)ccc65)n[nH]c4n3)CC2)[C@@H]1N [Compound 316, (3S,4S)-3-methyl-8-{3-[6-(1-methyl-1H-pyrazol-4-yl)-1,2,3,4-tetrahydroquinoxalin-1-yl]-1H-pyrazolo[3,4-b]pyrazin-6-yl}-2-oxa-8-azaspiro[4.5]decan-4-amine] | < 1000 |
| C[C@@H]1OCC2(CCN(c3cnc4c(N5CCCc6nc(-c7cnn(C(F)F)c7)ccc65)n[nH]c4n3)CC2)[C@@H]1N [Compound 317] | < 1000 |
| C[C@@H]1OCC2(CCN(c3cnc4c(N5CCCc6nc(-c7cnco7)ccc65)n[nH]c4n3)CC2)[C@@H]1N [Compound 318] | < 1000 |
| Cc1nc(-c2ccc3c(n2)CCCN3c2n[nH]c3nc(N4CCC5(CC4)CO[C@@H](C)[C@H]5N)cnc23)no1 [Compound 319, (3S,4S)-3-methyl-8-(3-[6-(5-methyl-1,2,4-oxadiazol-3-yl)-1,2,3,4-tetrahydro-1,5-naphthyridin-1-yl]-1H-pyrazolo[3,4-b]pyrazin-6-yl)-2-oxa-8-azaspiro[4.5]decan-4-amine; formic acid] | < 1000 |
| CCc1nc(-c2ccc3c(n2)CCCN3c2n[nH]c3nc(N4CCC5(CC4)CO[C@@H](C)[C@H]5N)cnc23)no1 [Compound 320, (3S,4S)-8-{3-[6-(5-ethyl-1,2,4-oxadiazol-3-yl)-1,2,3,4-tetrahydro-1,5-naphthyridin-1-yl]-1H-pyrazolo[3,4-b]pyrazin-6-yl}-3-methyl-2-oxa-8-azaspiro[4.5]decan-4-amine; formic acid] | < 1000 |
| CC(C)c1nc(-c2ccc3c(n2)CCCN3c2n[nH]c3nc(N4CCC5(CC4)CO[C@@H](C)[C@H]5N)cnc23)no1 [Compound 321, (3S,4S)-3-methyl-8-(3-{6-[5-(propan-2-yl)-1,2,4-oxadiazol-3-yl]-1,2,3,4-tetrahydro-1,5-naphthyridin-1-yl}-1H-pyrazolo[3,4-b]pyrazin-6-yl)-2-oxa-8-azaspiro[4.5]decan-4-amine; formic acid] | < 1000 |
| C[C@@H]1OCC2(CCN(c3cnc4c(N5CC(=O)Nc6ncncc65)n[nH]c4n3)CC2)[C@@H]1N [Compound 322] | 1000 to 10000 |
| CC(=O)N1CCN(c2n[nH]c3nc(N4CCC5(CC4)CO[C@@H](C)[C@H]5N)cnc23)c2ccc(-c3cnn(C)c3)cc21 [Compound 323] | < 1000 |
| C[C@@H]1OCC2(CCN(c3cnc4c(N5CCOc6nc(-c7cnn(C)c7)ccc65)n[nH]c4n3)CC2)[C@@H]1N [Compound 324] | < 1000 |
| C[C@@H]1OCC2(CCN(c3cnc4c(N5CCN(S(C)(=O)=O)c6ccccc65)n[nH]c4n3)CC2)[C@@H]1N [Compound 325] | < 1000 |
| C[C@@H]1OCC2(CCN(c3cnc4c(N5CC[C@@H](C(F)F)c6cc(C#N)ccc65)n[nH]c4n3)CC2)[C@@H]1N [Compound 326] | < 1000 |
| C[C@@H]1OCC2(CCN(c3cnc4c(N5CC[C@H](C(F)F)c6cc(C#N)ccc65)n[nH]c4n3)CC2)[C@@H]1N [Compound 327] | < 1000 |
| Cc1coc(-c2ccc3c(n2)CCCN3c2n[nH]c3nc(N4CCC5(CC4)CO[C@@H](C)[C@H]5N)cnc23)n1 [Compound 328] | < 1000 |
| CNC(=O)c1ccc2c(c1)NCCN2c1n[nH]c2nc(N3CCC4(CC3)CO[C@@H](C)[C@H]4N)cnc12 [Compound 329, 1-{6-[(3S,4S)-4-amino-3-methyl-2-oxa-8-azaspiro[4.5]decan-8-yl]-1H-pyrazolo[3,4-b]pyrazin-3-yl}-N-methyl-1,2,3,4-tetrahydroquinoxaline-6-carboxamide] | < 1000 |

More lines, now with the values ahead:

| IC50 [nM] | Structure (SMILES) |
| --- | --- |
| < 1000 | C[C@@H]1OCC2(CCN(c3cnc4c(N5CCc6ccc(C#N)cc6C5)n[nH]c4n3)CC2)[C@@H]1N [Compound 286] |
| < 1000 | CNC(=O)c1ccc2c(c1)[C@@H](C)CCN2c1n[nH]c2nc(N3CCC4(CC3)CO[C@@H](C)[C@H]4N)cnc12 [Compound 288, (4S)-1-{6-[(3S,4S)-4-amino-3-methyl-2-oxa-8-azaspiro[4.5]decan-8-yl]-1H-pyrazolo[3,4-b]pyrazin-3-yl}-N,4-dimethyl-1,2,3,4-tetrahydroquinoline-6-carboxamide] |
| < 1000 | C[C@@H]1OCC2(CCN(c3cnc4c(N5CCCc6c5ccnc6-c5cn[nH]c5)n[nH]c4n3)CC2)[C@@H]1N [Compound 289] |
| < 1000 | Cn1cc(-c2ccc3c(n2)CCCN3c2n[nH]c3nc(N4CCC5(CC4)COC[C@H]5N)cnc23)cn1 [Compound 290] |
| < 1000 | C[C@@H]1OCC2(CCN(c3cnc4c(N5CCc6cnccc6C5)n[nH]c4n3)CC2)[C@@H]1N [Compound 291] |
| < 1000 | Cc1ccc2c(n1)CCCN2c1n[nH]c2nc(N3CCC4(CC3)CO[C@@H](C)[C@H]4N)cnc12 [Compound 292] |
| < 1000 | C[C@@H]1OCC2(CCN(c3cnc4c(N5CCCc6nc(-c7ncco7)ccc65)n[nH]c4n3)CC2)[C@@H]1N [Compound 295, (3S,4S)-3-methyl-8-(3-(6-(oxazol-2-yl)-3,4-dihydro-1,5-naphthyridin-1(2H)-yl)-1H-pyrazolo[3,4-b]pyrazin-6-yl)-2-oxa-8-azaspiro[4.5]decan-4-amine] |
| < 1000 | C[C@@H]1OCC2(CCN(c3cnc4c(N5CCNc6nc(-c7cnn(C)c7)ccc65)n[nH]c4n3)CC2)[C@@H]1N [Compound 296, (3S,4S)-3-methyl-8-(3-(6-(1-methyl-1H-pyrazol-4-yl)-3,4-dihydropyrido[2,3-b]pyrazin-1(2H)-yl)-1H-pyrazolo[3,4-b]pyrazin-6-yl)-2-oxa-8-azaspiro[4.5]decan-4-amine] |
| < 1000 | C[C@@H]1OCC2(CCN(c3cnc4c(N5CCCc6nc(C(F)F)ccc65)n[nH]c4n3)CC2)[C@@H]1N [Compound 297] |
| < 1000 | Cn1cc(-c2ccc3c(n2)CCCN3c2n[nH]c3nc(N4CCC5(CCC[C@H]5N)CC4)cnc23)cn1 [Compound 298, (R)-8-(3-(6-(1-methyl-1H-pyrazol-4-yl)-3,4-dihydro-1,5-naphthyridin-1(2H)-yl)-1H-pyrazolo[3,4-b]pyrazin-6-yl)-8-azaspiro[4.5]decan-1-amine] |
| < 1000 | C[C@H]1CCN(c2n[nH]c3nc(N4CCC5(CC4)COC[C@H]5N)cnc23)c2ccc(-c3ncon3)cc21 [Compound 299, (4S)-8-{3-[(4S)-4-methyl-6-(1,2,4-oxadiazol-3-yl)-1,2,3,4-tetrahydroquinolin-1-yl]-1H-pyrazolo[3,4-b]pyrazin-6-yl}-2-oxa-8-azaspiro[4.5]decan-4-amine] |
| < 1000 | C[C@@H]1OCC2(CCN(c3cnc4c(N5CCN(C)c6ncccc65)n[nH]c4n3)CC2)[C@@H]1N [Compound 301] |
| < 1000 | CC(=O)N1CCN(c2n[nH]c3nc(N4CCC5(CC4)CO[C@@H](C)[C@H]5N)cnc23)c2ccc(C#N)cc21 [Compound 302] |
| < 1000 | C[C@@H]1OCC2(CCN(c3cnc4c(N5CCCc6c5ccnc6-c5ccnn5C)n[nH]c4n3)CC2)[C@@H]1N [Compound 303] |
| < 1000 | C[C@@H]1OCC2(CCN(c3cnc4c(N5CCCc6nc(-c7cncnc7)ccc65)n[nH]c4n3)CC2)[C@@H]1N [Compound 304] |
| < 1000 | C[C@@H]1OCC2(CCN(c3cnc4c(N5CCCc6nc(-c7ccnnc7)ccc65)n[nH]c4n3)CC2)[C@@H]1N [Compound 305] |
| < 1000 | CC(=O)NCc1ccc2c(n1)CCCN2c1n[nH]c2nc(N3CCC4(CC3)CO[C@@H](C)[C@H]4N)cnc12 [Compound 306, N-[(5-{6-[(3S,4S)-4-amino-3-methyl-2-oxa-8-azaspiro[4.5]decan-8-yl]-1H-pyrazolo[3,4-b]pyrazin-3-yl}-5,6,7,8-tetrahydro-1,5-naphthyridin-2-yl)methyl]acetamide dihydrochloride] |
| < 1000 | C[C@@H]1OCC2(CCN(c3cnc4c(N5CCCc6c5ccnc6N5CCOCC5)n[nH]c4n3)CC2)[C@@H]1N [Compound 307] |
| < 1000 | C[C@@H]1OCC2(CCN(c3cnc4c(N5CCCc6nc(-n7cnnc7)ccc65)n[nH]c4n3)CC2)[C@@H]1N [Compound 308] |
| < 1000 | C[C@@H]1OCC2(CCN(c3cnc4c(N5CCCc6nc(C7CCOC7)ccc65)n[nH]c4n3)CC2)[C@@H]1N (stereo partly drawn) [Compound 309, (3S,4S)-3-methyl-8-(3-(6-(tetrahydrofuran-3-yl)-3,4-dihydro-1,5-naphthyridin-1(2H)-yl)-1H-pyrazolo[3,4-b]pyrazin-6-yl)-2-oxa-8-azaspiro[4.5]decan-4-amine] |
